Experimental data: publication PMC7179227, “Antigenotoxic, Anti-photogenotoxic, and Antioxidant Properties of Polyscias filicifolia Shoots Cultivated In Vitro” (Molecules, 2020)
Where two headings read alike, the source gives them in different places.

Legend:
[1] = test system: S. typhimurium TA1535/pSK1002
Method: Metabolic activation was obtained with S9 fraction prepared from livers of male Sprague Dawley rats. […] After isolation, the evaluation of cytochrome p450 level was performed and samples were stored at −80 ^∘ C. The S9 mix was prepared according to the method described by Maron and Ames.
(§1) IR was calculated on the basis of spectrophotometric measurement.

[2] = test system: S. typhimurium TA1535/pSK1002; details: mixture with 4NQO 0.05 μg/mL
Method: Salmonella typhimurium strain TA1535/pSK1002 was purchased from Deutsche Sammlung von Mikroorganismen und Zellkulturen GmbH (DSMZ, Germany).
The strain used in the test carries the fusion of umuC and lacZ genes, which are placed at the plasmid pSK1002. […] In the present study, the umu-test was carried out in the micro-plate variant according to the ISOguideline [61]. β -galactosidase activity of the tested compound was presented as induction ratio (IR). IR was calculated as the β -galactosidase activity of the tested compound relative to the negative control.
IR was calculated on the basis of spectrophotometric measurement. The absorption at 420 nm indicated the intensity of the enzymatic reaction, and the optical density at 600 nm indicated the bacteria growth. The measurements were performed with an Asys UVM340 Hightech microplate spectrophotometer.
At the same time, the genotoxicity of PhAs (10 μ g/mL) and EXTs (0.25–2 mg/mL) was investigated.

[3] = test system: S. typhimurium TA1535/pSK1002; remark: listed apart in the source
Method: as §1
The anti-photogenotoxicity was determined using chlorpromazine (CPZ) as an agent inducing genotoxic response under UVA irradiation by forming an unstable promazyl radical which is able to bind to DNA [62]. The protocol developed by Skrzypczak et. al was applied. […] The rate of anti-photogenotoxicity was calculated using the same formula as the rate of antigenotoxicity.

[4] = test system: S. typhimurium TA1535/pSK1002; details: −S9, highest tested concentration 10 μg/mL
Method: as §1

[5] = test system: S. typhimurium TA1535/pSK1002; format: cell-based, Salmonella typhimurium
Method: as §1

[6] = test system: S. typhimurium TA98 strain; details: against 4NQO; cited from earlier work
[7] = test system: MMC genotoxicity; details: CGA 5 and 50 μM, MMC 0.9 μM (0.3 μg/mL); cited from earlier work
[8] = mixture with CPZ 5 μg/mL, UVA, PhA 5 μg/mL
[9] = mixture with CPZ 5 μg/mL, UVA, PhA 10 μg/mL
[10] = mixture with CPZ 5 μg/mL, UVA, PhA […]
[11] = mixture with CPZ 10 μg/mL, UVA, PhA 5 μg/mL
[12] = mixture with CPZ 10 μg/mL, UVA, PhA 10 μg/mL
[13] = mixture with CPZ 10 μg/mL, UVA, PhA […]
[14] = +S9, highest tested concentration 10 μg/mL
[15] = mixture with 2AA 1 μg/mL, PhA concentration 0.3125 (mg/mL)
[16] = mixture with 2AA 1 μg/mL, PhA concentration 0.625 (mg/mL)
[17] = mixture with 2AA 1 μg/mL, PhA concentration 1.25 (mg/mL)
[18] = mixture with 2AA 1 μg/mL, PhA concentration 2.5 (mg/mL)
[19] = mixture with 2AA 1 μg/mL, PhA concentration 5 (mg/mL)
[20] = mixture with 2AA 1 μg/mL, PhA concentration 10 (mg/mL)
[21] = mixture with 2AA 10 μg/mL, PhA concentration 0.3125 (mg/mL)
[22] = mixture with 2AA 10 μg/mL, PhA concentration 0.625 (mg/mL)
[23] = mixture with 2AA 10 μg/mL, PhA concentration 1.25 (mg/mL)
[24] = mixture with 2AA 10 μg/mL, PhA concentration 2.5 (mg/mL)
[25] = mixture with 2AA 10 μg/mL, PhA concentration 5 (mg/mL)
[26] = mixture with 2AA 10 μg/mL, PhA concentration 10 (mg/mL)
[27] = mixture with MMC 0.004 μg/mL, PhA 5 μg/mL
[28] = mixture with MMC 0.004 μg/mL, PhA 10 μg/mL
[29] = mixture with MMC 0.004 μg/mL, PhA […]
[30] = mixture with MMC 0.02 μg/mL, PhA 5 μg/mL
[31] = mixture with MMC 0.02 μg/mL, PhA 10 μg/mL
[32] = mixture with MMC 0.02 μg/mL, PhA […]

Compound: Nc1ccc2cc3ccccc3cc2c1 [2AA, 2-aminoanthracene]
- IR (mean ± SD) ([1]; control: 2AA 1 μg/mL alone, +S9, experiments with PhAs): 3.37 ± 0.72
- IR (mean ± SD) ([1]; control: 2AA 1 μg/mL alone, +S9, experiments with extracts): 4.5 ± 0.99
- IR (mean ± SD) ([1]; control: 2AA 10 μg/mL alone, +S9, experiments with PhAs): 4 ± 1.3
- IR (mean ± SD) ([1]; control: 2AA 10 μg/mL alone, +S9, experiments with extracts): 6 ± 1.5

Compound: O=C(O)/C=C/c1ccc(O)c(O)c1 [CA, caffeic acid]
- IR (mean ± SD) ([2]; PhA 5 μg/mL): 3.7 ± 0.69
- IR (mean ± SD) ([2]; PhA 10 μg/mL): 3.9 ± 0.99
- Anti-Photogenotox. ([3]; CPZ 5 μg/mL, UVA, PhA […]): 11%
- Anti-Photogenotox. ([3]; CPZ 10 μg/mL, UVA, PhA […]): 10%
- IR (mean ± SD) [3, 8]: 3.3 ± 0.33
- IR (mean ± SD) [3, 9]: 3.4 ± 0.25
- IR (mean ± SD) [3, 10]: 3.2 ± 0.40
- IR (mean ± SD) [3, 11]: 5 ± 1.2
- IR (mean ± SD) [3, 12]: 4.9 ± 0.90
- IR (mean ± SD) [3, 13]: 4.5 ± 0.49
- Antigenotox. ([1]; 2AA 10 μg/mL, PhA concentration 1.25 (mg/mL)): 24%
- IR (mean ± SD) [1, 14]: 1.0 ± 0.11
- IR (mean ± SD) [1, 15]: 3 ± 1.0
- IR (mean ± SD) [1, 16]: 3.1 ± 0.55
- IR (mean ± SD) [1, 17]: 3.1 ± 0.29
- IR (mean ± SD) [1, 18]: 3.1 ± 0.53
- IR (mean ± SD) [1, 19]: 3.7 ± 0.77
- IR (mean ± SD) [1, 20]: 3.8 ± 0.85
- IR (mean ± SD) [1, 21]: 2.8 ± 0.60
- IR (mean ± SD) [1, 22]: 3.4 ± 0.90
- IR (mean ± SD) [1, 23]: 2.7 ± 0.34
- IR (mean ± SD) [1, 24]: 3.2 ± 0.51
- IR (mean ± SD) [1, 25]: 3.6 ± 0.89
- IR (mean ± SD) [1, 26]: 3.7 ± 0.80
- IR (mean ± SD) [4]: 1.1 ± 0.16
- IR (mean ± SD) [5, 27]: 2.7 ± 0.81
- IR (mean ± SD) [5, 28]: 2.3 ± 0.67
- IR (mean ± SD) [5, 29]: 2.5 ± 0.75
- IR (mean ± SD) [5, 30]: 5 ± 1.1
- IR (mean ± SD) [5, 31]: 5 ± 1.2
- IR (mean ± SD) [5, 32]: 5 ± 1.2
- reduction of the number of revertants [6]: 28%

Compound: O=C(/C=C/c1ccc(O)c(O)c1)O[C@@H]1C[C@](O)(C(=O)O)C[C@@H](O)[C@H]1O [CGA, Chlorogenic acid]
- inhibition of MMC genotoxicity [7]: 65%

Compound: CN(C)CCCN1c2ccccc2Sc2ccc(Cl)cc21 [CPZ, chlorpromazine]
- IR (mean ± SD) ([3]; control: CPZ 5 μg/mL alone, UVA irradiation): 3.6 ± 0.40
- IR (mean ± SD) ([3]; control: CPZ 10 μg/mL alone, UVA irradiation): 5.1 ± 0.78

Compound: COc1cc(/C=C/C(=O)O)ccc1O [FA, ferulic acid]
- IR (mean ± SD) ([2]; PhA 5 μg/mL): 3.6 ± 0.67
- IR (mean ± SD) ([2]; PhA 10 μg/mL): 4.0 ± 0.70
- Anti-Photogenotox. ([3]; CPZ 5 μg/mL, UVA, PhA 5 μg/mL): 15%
- Anti-Photogenotox. ([3]; CPZ 5 μg/mL, UVA, PhA 10 μg/mL): 11%
- Anti-Photogenotox. ([3]; CPZ 5 μg/mL, UVA, PhA […]): 20%
- Anti-Photogenotox. ([3]; CPZ 10 μg/mL, UVA, PhA 10 μg/mL): 15%
- Anti-Photogenotox. ([3]; CPZ 10 μg/mL, UVA, PhA […]): 14%
- IR (mean ± SD) [3, 8]: 3.0 ± 0.37
- IR (mean ± SD) [3, 9]: 3.2 ± 0.20
- IR (mean ± SD) [3, 10]: 3.0 ± 0.41
- IR (mean ± SD) [3, 11]: 4.5 ± 0.73
- IR (mean ± SD) [3, 12]: 4.3 ± 0.46
- IR (mean ± SD) [3, 13]: 4 ± 1.1
- Antigenotox. ([1]; 2AA 1 μg/mL, PhA concentration 0.625 (mg/mL)): 19%
- IR (mean ± SD) [1, 14]: 1.1 ± 0.14
- IR (mean ± SD) [1, 15]: 3.1 ± 0.73
- IR (mean ± SD) [1, 16]: 2.7 ± 0.37
- IR (mean ± SD) [1, 17]: 2.9 ± 0.66
- IR (mean ± SD) [1, 18]: 2.8 ± 0.58
- IR (mean ± SD) [1, 19]: 3.4 ± 0.96
- IR (mean ± SD) [1, 20]: 4 ± 1.0
- IR (mean ± SD) [1, 21]: 2.9 ± 0.43
- IR (mean ± SD) [1, 22]: 3.1 ± 0.75
- IR (mean ± SD) [1, 23]: 3.3 ± 0.63
- IR (mean ± SD) [1, 24]: 3.2 ± 0.45
- IR (mean ± SD) [1, 25]: 4 ± 1.3
- IR (mean ± SD) [1, 26]: 5 ± 1.4
- IR (mean ± SD) [4]: 1.2 ± 0.10
- IR (mean ± SD) [5, 27]: 2.5 ± 0.62
- IR (mean ± SD) [5, 28]: 2.3 ± 0.51
- IR (mean ± SD) [5, 29]: 2.6 ± 0.93
- IR (mean ± SD) [5, 30]: 5 ± 1.2
- IR (mean ± SD) [5, 31]: 5 ± 1.2
- IR (mean ± SD) [5, 32]: 5 ± 1.2
